According to patent publication US12365739B2, “Monoclonal antibodies to angiotensin-(1-12), compositions including the same, and methods of use thereof” (Wake Forest University Health Sciences, priority 2021, dated 2025):

Key:
[1] = test system: Sprague Dawley (SD) rats and TGR(hAGT)L1623 rats; experiment: Systemic vasoconstrictor activity of intravenous h-Ang-(1-12); assay type: in vivo, rat; settings: for time to peak of increase in mean arterial pressure: 75-300 pmol/kg i.v.
Experimental: Efficacy of Ang-(1-12) Immunoneutralization in vivo: We examined the systemic vasoconstrictor activity of Ang-(1-12) (dose range 75-300 pmol) in 20 (10 females) Sprague Dawley (SD) rats (age 12-weeks) and 20 (10 female) other rats expressing the human sequence of the AGT gene [TGR(hAGT)L1623] (age 10-12 weeks) following induction of general anesthesia with thio-butabarbital sodium [Inactin® (135 mg/kg, i.p.)] and tracheal intubation for mechanical ventilation. Plastic catheters were introduced into a left carotid artery [PE-50 catheter attached to a heparinized saline wash syringe (15 USP U/mL) and a femoral vein (PE-10) for drug delivery. Phasic and mean arterial pressures, recorded with a True Wave pressure transducer (Edwards Lifesciences, Co, Irvine, CA) connected to the arterial cannula, were processed by a data-acquisition and analysis system with Acknowledge 5 software (MP160, BIOPAC System Inc., Goleta, CA). Heart rate was derived by the software from the electrical analysis of the rise portion of the pressure waveform.

[2] = test system: isolated carotid artery rings; experiment: Ang-(1-12) constrictor activity in isolated carotid artery rings; set-up: species or system rat; settings: concentration of 5×10^−1; SD and TGR(hAGT)L1623 rats; FIG. 7
Text: Efficacy of Ang-(1-12) Immunoneutralization in Isolated Carotid Arteries. The ability of the Ang-(1-12)-mAb to block Ang-(1-12) vasoconstrictor activity in 6 SD and 3 TGR(hAGT)L1623 rats was further assessed in isolated carotid artery rings that were mounted in organ chambers as described elsewhere.^3 Under a dissecting microscope, both carotid arteries were dissected free of adventitial tissue, cut into 1.5-2 mm segments and mounted on a myograph (Multi Myograph, Model 610M Danish Myo Technologies, Aarhus, Denmark) using two stainless steel hooks. In all the arterial segments, the endothelium was disrupted by passing a human hair through the lumen of the vessel. The myograph chamber was filled with Krebs-Henseleit buffer (KHB) solution, maintained at 37° C. and aerated with 95% O2/5% CO2. The vessels were washed and incubated for 30 min before determining the optimal diameter. Each arterial segment was stretched to its individual optimal lumen diameter following the normalization procedure previously described. In all studies, after obtaining the optimal diameter, a 30-min equilibration period preceded the addition of the test substances. Contractile responses to a single dose of 62.5 mM KCl was obtained for all segments by calculating the average of three consecutive doses tested at 15 min intervals. This response was used to normalize tension between individual arterial segments. […]

Ang II = target: T1, Ang II (Homo sapiens, UniProt P01019); experiment: Specificity of immunoneutralization: pressor response to Ang II; assay type: in vivo
T1 construct: host or cells: injected into TGR(hAGT)L1623 rats
Experimental: In a separate group of 12 TGR(hAGT)L1623 rats (6 females) the blood pressure and heart rate responses to intravenous bolus injection of a monoclonal antibody directed against the human amino acid sequence of Ang-(1-12) [Ang-(1-12)-mAb] was administered at a dose of 30 mg/kg. […] The Ang-(1-12)-mAb was diluted in physiological saline to a concentration of 30 mg in a volume not to exceed 1 mL of buffered saline. The specificity of the immunoneutralization of Ang-(1-12) was evaluated in additional experiments in which the rat sequence of Ang-(1-12) (300 pmol/kg, n=2); Ang II (50 pmol/kg; n=3 TGR(hAGT)L1623 rats) or an […] mouse IgG (30 mg/kg, n=4 TGR(hAGT)L1623 rats; Innovative Research, Inc. Novi, MI) were administered intravenously.

TGR(hAGT)L1623 rats = settings: chronic administration; cited from earlier work

human angiotensin-(1-12) (DRVYIHPFHLVI; listed as Homo sapiens) [h-Ang-(1-12)]
time to peak of increase in mean arterial pressure ([1]; SD rats): 32.45 ± 1.08 s | time to peak of increase in mean arterial pressure ([1]; TGR(hAGT)L1623 rats): 36.20 ± 1.52 s | change in mean arterial pressure ([1]; i.v. doses between 75 pmol/kg and 300 pmol/kg): rapid and dose-dependent increases | constrictor responses in carotid artery rings normalized for KCL [2]: significant constrictor responses

angiotensin II (DRVYIHPF; listed as Homo sapiens) [Ang II]
peak mean arterial pressure after bolus intravenous Ang II (Ang II; 30-60 min after delivery of the Ang-(1-12) mAb, baseline 100±12 mm Hg): 117±13 mm Hg | peak mean arterial pressure after bolus intravenous Ang II (Ang II; before the Ang-(1-12) mAb, baseline 95±6 mm Hg): 114±8 mm Hg

CCCCC(=O)N(Cc1ccc(-c2ccccc2-c2nnn[nH]2)cc1)[C@H](C(=O)O)C(C)C [valsartan]
effect on hypertension (TGR(hAGT)L1623 rats): Reversal of the hypertension
